# From patent US10197563B2, “3-D in vitro model for breast cancer dormancy” (New Jersey Institute of Technology, priority 2015, dated 2019)
# Columns and labels:
# [1] = tested on: MDA-MB-231 cells; assay: Carboplatin cytotoxicity, trypan blue test; assay type: cell-based
# Protocol: (§1) For determination of cell viability, treated as well as non-treated cells were used. MDA-MB-231 and T47D cells were seeded in T-175 tissue culture flasks. At 80% confluency, the growth media was replaced with fresh media containing different concentrations of carboplatin for 48 and 72 h. All experiments were repeated twice. After treatment, the culture media was collected in a 50 ml centrifugation tube, since it might contain dead cells necessary for cell counts. The cell monolayer was washed with PBS and then collected in the same tube. Cells were treated with Trypsin and, Trypsin with the cells was collected in the same 50 ml tube. The suspension was centrifuged (5 min, 1200 rpm) and the supernatant removed. The pellet was washed with PBS, centrifuged (5 min, 1200 rpm) and re-suspended again in complete culture media. Then, a small aliquot of the cell suspension (25 μl) was mixed with the same volume of 0.4% trypan blue (Sigma) solution and the sample was counted after 2 min of staining using a haemocytometer. The number of bright (viable) cells and blue cells (non-viable) were evaluated using a light microscope with a 20-fold magnification. After counting, the cell viability (CV) was expressed as the percentage of surviving cells compared to the total number of cells: CV=(viable cells/total number of cells)×100.
# (§2) The concentrations of drugs that were finally toxic to at least 50% of the cell population (IC50/cytotoxicity) were determined. Then, studies were performed looking at viability over the full range of carboplatin concentrations and compared to non-treated BCCs. At day 3-post treatment, viable resistant BCCs were selected and counted using standard protocols for downstream experiments on scaffolds.
# [2] = tested on: T47D cells; assay: Carboplatin cytotoxicity, trypan blue test; assay type: cell-based
# Protocol: as §1, §2
# [3] = tested on: MDA-MB-231 cells; assay: Carboplatin survival curve for chemotherapy treated and non-treated cells; assay type: cell-based; conditions: for percent viability: 220 μg/ml carboplatin
# Protocol: as §1, §2
# [4] = tested on: MDA-MB-231 and T47D cells; assay: Western blots of breast cancer cell lines with increasing carboplatin dosage; assay type: cell-based; conditions: with increased carboplatin concentration
# Protocol: Western blot was performed to detect the following proteins: Bax, Bcl-2, Oct-4 and Sox-2 for BCCs on scaffolds. Briefly, whole cell extracts were prepared with the NP-40 buffer and nuclear/cytoplasmic extracts with NE-PER Nuclear and Cytoplasmic Extraction kit. BCC extracts (20 μg) were subjected to electrophoresis on 4-20% SDS-PAGE (Bio-Rad; Hercules, Calif.). Proteins were transferred to PVDF membranes, and membranes were incubated overnight in the respective primary antibodies. This was followed by 2 h incubation with HRP-conjugated secondary antibodies at 1:2000 final dilutions. The latter was detected with chemiluminescence. Membranes were stripped with Restore Western Blot Stripping Buffer and then re-probed for other proteins, including β-actin mAb (1:4000 dilution). All bands were normalized to β-actin.
# [5] = tested on: T47D cells; assay: Flow cytometry of CD44/CD24 expression of carboplatin treated cells; assay type: cell-based
# [6] = tested on: MDA-MB-231 cells; assay: Morphology of cells post addition of carboplatin; assay type: cell-based
# From the text: For these studies carboplatin sensitivity of MDA-MB-231 cells was investigated as previously mentioned. Different subpopulations were obtained for subsequent studies on scaffolds. Under normal condition, BCCs population in culture can be seen to be composed of a heterogeneous population of giant multi-nucleated cells mixed with small single-nucleated cells (FIGS. 38a and b.). […] Therefore, cells at 3-4 days post treatment were selected as being carboplatin resistant MDA-MB-231 cells.
# [7] = tested on: MDA-MB-231 cells; conditions: treated cells
# [8] = 2 days post treatment, maximum carboplatin concentration of 50 μg/ml
# [9] = 3 days post treatment, 50 μg/ml carboplatin
smiles,measurement,setting,value
N.N.O=C([O-])C1(C(=O)[O-])CCC1.[Pt+2] [carboplatin],death,[1]; [8],17%
same,death,[1]; [9],25%
same,death,[2]; [8],28%
same,death,[2]; [9],48%
same,difference in percent viability between non-treated and treated cells,[3]; 0 to 100 μg/ml carboplatin,no significant difference
same,percent viability,[3]; chemo-treated cells,80%
same,percent viability,[3]; non-treated cells,20%
same,decrease in percent viability,"[3]; non-treated cells, 100 to 120 μg/ml carboplatin",30%
same,decrease in percent viability,"[3]; non-treated cells, 140 to 170 μg/ml carboplatin",40%
same,decrease in percent viability,"[3]; non-treated cells, 170 to 220 μg/ml carboplatin",80%
same,decrease in percent viability,"[3]; treated (chemoresistant) cells, 100 to 120 μg/ml carboplatin",10%
same,decrease in percent viability,"[3]; treated (chemoresistant) cells, 140 to 170 μg/ml carboplatin",20%
same,decrease in percent viability,"[3]; treated (chemoresistant) cells, 170 to 220 μg/ml carboplatin",20%
same,Bcl-2 expression,[4],increased
same,Oct-4 expression,[4],increased
same,Sox2 expression,[4],increased
same,CD44^+/CD24^+ cells,[5],29%
same,CD44^+/CD24^− cells,[5],0.01%
same,CD44^−/CD24^− cells,[5],0.99%
same,CD44^−/low/CD24^+ cells,[5],70%
same,cell morphology,[6]; 7 days post carboplatin treatment,fragmented and appeared to be dying
same,giant multi-nucleated cells in culture,[6]; several hours post treatment with carboplatin,no longer present
same,CD44^+/CD24^+ cells,[7],81.4%
same,CD44^+/CD24^− cells,[7],18%
same,CD44^−/CD24^+ cells,[7],0.09%
same,CD44^−/CD24^− cells,[7],0.51%
